The values below are quoted from earlier work in PMC6168745 (Diabetes, Obesity & Metabolism, 2016).

Data set [1] has as its system people with type 2 diabetes.
The test system of data set [2] is participants with type 2 diabetes. Conditions: + insulin glargine + metformin; CGM.

liraglutide: the “MAGE, large amplitude of glycaemic excursions and within-day s.d. of mean daily glucose” value in data set [1] (once daily, comparative trials with insulin) is listed as “significantly reduced”. In addition, in data set [1] (small uncontrolled study of Japanese people with type 2 diabetes), the MAGE from baseline result was “significantly reduced”.

In the case of exenatide [Twice‐daily exenatide], the “glucose CV and MAGE compared with prandial insulin” value in data set [2] is listed as “significantly reduced”.
